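Compound exposure: 48 hours, 5 concentrations, 96-well plates. TGI is the concentration that stops growth completely.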
Assays:
Experiment in all cases: DTP human tumour cell line panel, 48 h
M14 melanoma = tested on: M14 melanoma
HT29 colon = tested on: HT29 colon
LXFL 529 NSCLC = tested on: LXFL 529 NSCLC
SF-268 CNS = tested on: SF-268 CNS
SNB-78 CNS = tested on: SNB-78 CNS
HOP-92 NSCLC = tested on: HOP-92 NSCLC
HL-60(TB) leukemia = tested on: HL-60(TB) leukemia
SK-MEL-2 melanoma = tested on: SK-MEL-2 melanoma
NCI-H460 lung = tested on: NCI-H460 lung
NCI-H23 lung = tested on: NCI-H23 lung
A498 renal = tested on: A498 renal
ACHN renal = tested on: ACHN renal
786-0 renal = tested on: 786-0 renal
SR leukemia = tested on: SR leukemia
SF-295 CNS = tested on: SF-295 CNS
RPMI-8226 leukemia = tested on: RPMI-8226 leukemia
EKVX NSCLC = tested on: EKVX NSCLC
UO-31 renal = tested on: UO-31 renal
SW-620 colon = tested on: SW-620 colon
LOX IMVI melanoma = tested on: LOX IMVI melanoma
UACC-62 melanoma = tested on: UACC-62 melanoma
KM20L2 colon = tested on: KM20L2 colon
TK-10 renal = tested on: TK-10 renal
OVCAR-8 ovarian = tested on: OVCAR-8 ovarian
RXF 393 renal = tested on: RXF 393 renal
SK-MEL-28 melanoma = tested on: SK-MEL-28 melanoma
NCI-H522 lung = tested on: NCI-H522 lung
OVCAR-4 ovarian = tested on: OVCAR-4 ovarian
MOLT-4 leukemia = tested on: MOLT-4 leukemia
OVCAR-3 ovarian = tested on: OVCAR-3 ovarian
OVCAR-5 ovarian = tested on: OVCAR-5 ovarian
UACC-257 melanoma = tested on: UACC-257 melanoma
CCRF-CEM leukemia = tested on: CCRF-CEM leukemia
CAKI-1 renal = tested on: CAKI-1 renal
HCT-15 colon = tested on: HCT-15 colon
KM12 colon = tested on: KM12 colon
U251 CNS = tested on: U251 CNS
HCT-116 colon = tested on: HCT-116 colon
SNB-19 CNS = tested on: SNB-19 CNS
K-562 leukemia = tested on: K-562 leukemia
SN12C renal = tested on: SN12C renal
A549 NSCLC = tested on: A549 NSCLC
SK-MEL-5 melanoma = tested on: SK-MEL-5 melanoma
IGROV1 ovarian = tested on: IGROV1 ovarian
HOP-62 NSCLC = tested on: HOP-62 NSCLC
HCC-2998 colon = tested on: HCC-2998 colon
COLO 205 colon = tested on: COLO 205 colon
M19-MEL melanoma = tested on: M19-MEL melanoma
NCI-H226 lung = tested on: NCI-H226 lung
HOP-18 NSCLC = tested on: HOP-18 NSCLC
MALME-3M melanoma = tested on: MALME-3M melanoma
DMS 114 small cell lung = tested on: DMS 114 small cell lung
SNB-75 CNS = tested on: SNB-75 CNS
SF-539 CNS = tested on: SF-539 CNS
SK-OV-3 ovarian = tested on: SK-OV-3 ovarian

COc1cc(OC(C)=O)cc2c(OC(C)=O)ccc(OC(C)=O)c12 was tested, and the TGI (M14 melanoma) was over 100 µM, the TGI (HT29 colon) was over 100 µM and the TGI (LXFL 529 NSCLC) was over 100 µM. The TGI (SF-268 CNS) was over 100 µM, the TGI (SNB-78 CNS) was over 100 µM and the TGI (HOP-92 NSCLC) was 46.7 µM. For the same molecule, the TGI (HL-60(TB) leukemia) was over 100 µM, the TGI (SK-MEL-2 melanoma) was over 100 µM and the TGI (NCI-H460 lung) was over 100 µM. The TGI (NCI-H23 lung) was over 100 µM, the TGI (A498 renal) was over 100 µM and the TGI (ACHN renal) was over 100 µM. It also gave a TGI (786-0 renal) of over 100 µM, a TGI (SR leukemia) of over 100 µM and a TGI (SF-295 CNS) of over 100 µM. For the same molecule, the TGI (RPMI-8226 leukemia) was over 100 µM, the TGI (EKVX NSCLC) was over 100 µM and the TGI (UO-31 renal) was over 100 µM. It also gave a TGI (SW-620 colon) of over 100 µM, a TGI (LOX IMVI melanoma) of over 100 µM and a TGI (UACC-62 melanoma) of over 100 µM. The TGI (KM20L2 colon) was over 100 µM, the TGI (TK-10 renal) was over 100 µM and the TGI (OVCAR-8 ovarian) was over 100 µM. The TGI (RXF 393 renal) was over 100 µM, the TGI (SK-MEL-28 melanoma) was over 100 µM and the TGI (NCI-H522 lung) was over 100 µM. The TGI (OVCAR-4 ovarian) was over 100 µM, the TGI (MOLT-4 leukemia) was over 100 µM and the TGI (OVCAR-3 ovarian) was over 100 µM. It also gave a TGI (OVCAR-5 ovarian) of over 100 µM, a TGI (UACC-257 melanoma) of over 100 µM and a TGI (CCRF-CEM leukemia) of over 100 µM. The TGI (CAKI-1 renal) was over 100 µM, the TGI (HCT-15 colon) was over 100 µM and the TGI (KM12 colon) was over 100 µM. The TGI (U251 CNS) was over 100 µM, the TGI (HCT-116 colon) was over 100 µM and the TGI (SNB-19 CNS) was over 100 µM. The TGI (K-562 leukemia) was over 100 µM, the TGI (SN12C renal) was over 100 µM and the TGI (A549 NSCLC) was over 100 µM. It also gave a TGI (SK-MEL-5 melanoma) of over 100 µM, a TGI (IGROV1 ovarian) of over 100 µM and a TGI (HOP-62 NSCLC) of over 100 µM.
O=C(COc1ccc2c(=O)cc(-c3ccccc3)oc2c1)N1CCN(c2ccccc2)CC1 was tested, and the TGI (M14 melanoma) was over 100 µM, the TGI (LXFL 529 NSCLC) was over 100 µM and the TGI (SF-268 CNS) was over 100 µM. For the same molecule, the TGI (SNB-78 CNS) was over 100 µM, the TGI (HL-60(TB) leukemia) was 87.3 µM and the TGI (HCC-2998 colon) was over 100 µM. It also gave a TGI (SK-MEL-2 melanoma) of 77.8 µM, a TGI (NCI-H460 lung) of over 100 µM and a TGI (NCI-H23 lung) of over 100 µM. For the same molecule, the TGI (ACHN renal) was over 100 µM, the TGI (786-0 renal) was over 100 µM and the TGI (COLO 205 colon) was over 100 µM. The TGI (SF-295 CNS) was over 100 µM, the TGI (RPMI-8226 leukemia) was over 100 µM and the TGI (EKVX NSCLC) was over 100 µM. For the same molecule, the TGI (UO-31 renal) was over 100 µM, the TGI (SW-620 colon) was over 100 µM and the TGI (LOX IMVI melanoma) was over 100 µM. The TGI (M19-MEL melanoma) was over 100 µM, the TGI (UACC-62 melanoma) was over 100 µM and the TGI (KM20L2 colon) was over 100 µM. The TGI (NCI-H226 lung) was over 100 µM, the TGI (TK-10 renal) was over 100 µM and the TGI (OVCAR-8 ovarian) was over 100 µM. For the same molecule, the TGI (RXF 393 renal) was over 100 µM, the TGI (SK-MEL-28 melanoma) was over 100 µM and the TGI (NCI-H522 lung) was 93.8 µM. The TGI (HOP-18 NSCLC) was over 100 µM, the TGI (MALME-3M melanoma) was over 100 µM and the TGI (MOLT-4 leukemia) was over 100 µM. For the same molecule, the TGI (OVCAR-3 ovarian) was over 100 µM, the TGI (OVCAR-5 ovarian) was over 100 µM and the TGI (UACC-257 melanoma) was over 100 µM. It also gave a TGI (CCRF-CEM leukemia) of over 100 µM, a TGI (HCT-15 colon) of over 100 µM and a TGI (KM12 colon) of over 100 µM. For the same molecule, the TGI (DMS 114 small cell lung) was over 100 µM, the TGI (U251 CNS) was over 100 µM and the TGI (HCT-116 colon) was over 100 µM. For the same molecule, the TGI (SNB-75 CNS) was over 100 µM, the TGI (SF-539 CNS) was over 100 µM and the TGI (SK-OV-3 ovarian) was over 100 µM. It also gave a TGI (SNB-19 CNS) of over 100 µM, a TGI (K-562 leukemia) of over 100 µM and a TGI (SN12C renal) of over 100 µM. For the same molecule, the TGI (A549 NSCLC) was over 100 µM, the TGI (SK-MEL-5 melanoma) was over 100 µM and the TGI (IGROV1 ovarian) was over 100 µM. For the same molecule, the TGI (HOP-62 NSCLC) was over 100 µM.
